Source: patent publication US20250230147A1, “LACTAMS AS CBL-B INHIBITORS” (Genentech, Inc., priority 2021, published 2025)
pIC50: −log10 of the molar value.

Legend:
c-Cbl = c-Cbl (Homo sapiens (Human), UniProt P22681); assay: C-Cbl LCK Ub TR-FRET assay (c-cbl Lck HTRF); type: biochemical; details: for (fold-selectivity): C-cbl Lck HTRF IC50 relative to Cbl-b Lck HTRF IC50
Method in brief: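 Detection reagents added, brief spin, 20 min RT. IC50 fit normalized to no-LCK (low) and DMSO (high) controls.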

Cbl-b = Cbl-b (Homo sapiens (Human), UniProt Q13191); assay: Cbl-b LCK Ub TR-FRET assay (Cbl-b Lck HTRF); type: biochemical
Chain of Cbl-b (Q13191 40-426): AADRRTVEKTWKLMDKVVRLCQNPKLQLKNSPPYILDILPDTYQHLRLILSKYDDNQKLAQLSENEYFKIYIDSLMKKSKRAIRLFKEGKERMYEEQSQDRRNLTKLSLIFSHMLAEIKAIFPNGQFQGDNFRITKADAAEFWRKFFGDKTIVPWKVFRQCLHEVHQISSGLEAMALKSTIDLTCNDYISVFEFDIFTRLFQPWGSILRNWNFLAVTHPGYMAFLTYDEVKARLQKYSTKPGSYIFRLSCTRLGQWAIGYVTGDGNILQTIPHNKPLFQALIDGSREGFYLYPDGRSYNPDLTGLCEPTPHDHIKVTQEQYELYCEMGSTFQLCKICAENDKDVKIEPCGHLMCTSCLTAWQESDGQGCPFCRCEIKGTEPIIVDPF
Method in brief: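 Biotin-Cbl-b preincubated with compound (10-point 3-fold series) 60 min, then His-LCK with 1 mM ATP (2× mixture) added for 90 min at room temperature. Ubiquitination detected by TR-FRET using HA-ubiquitin/UBE2D2 adduct, anti-HA-D2 and streptavidin-Eu; IC50 normalised to no-LCK and DMSO controls.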

Chain of c-Cbl (P22681 47-435): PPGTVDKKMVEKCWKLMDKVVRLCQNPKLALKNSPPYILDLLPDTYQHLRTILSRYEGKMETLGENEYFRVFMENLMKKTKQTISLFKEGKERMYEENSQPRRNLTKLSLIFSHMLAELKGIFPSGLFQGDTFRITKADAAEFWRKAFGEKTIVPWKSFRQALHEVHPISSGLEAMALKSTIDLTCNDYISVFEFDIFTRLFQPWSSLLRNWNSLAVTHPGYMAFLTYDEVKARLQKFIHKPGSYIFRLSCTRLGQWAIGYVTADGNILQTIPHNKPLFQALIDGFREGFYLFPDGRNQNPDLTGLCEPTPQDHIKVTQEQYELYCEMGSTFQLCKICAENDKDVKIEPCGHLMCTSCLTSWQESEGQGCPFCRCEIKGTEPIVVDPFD

Row | SMILES | pIC50 (c-Cbl) | (fold-selectivity) (c-Cbl) | pIC50 (Cbl-b)
1 | CCOc1cc(C2(Cc3nncn3C)COC2)cc(N2Cc3c(cc(CN4CCC(F)(F)[C@H](C)C4)cc3C(F)(F)F)C2=O)n1 [Compound 375, (R)-6-((4,4-difluoro-3-methylpiperidin-1-yl)methyl)-2-(6-ethoxy-4-(3-((4-methyl-4H-1,2,4-triazol-3-yl)methyl)oxetan-3-yl)pyridin-2-yl)-4-(trifluoromethyl)isoindolin-1-one] | 7.85 | (0.65x) | 7.66
2 | CC(=O)Nc1cc(C2(Cc3nncn3C)CCC2)cc(N2Cc3c(cc(CN4CCN(C)C[C@@H]4C(C)C)cc3C(F)(F)F)C2=O)n1 [Compound 330, (S)-N-(6-(6-((2-isopropyl-4-methylpiperazin-1-yl)methyl)-1-oxo-4-(trifluoromethyl)isoindolin-2-yl)-4-(1-((4-methyl-4H-1,2,4-triazol-3-yl)methyl)cyclobutyl)pyridin-2-yl)acetamide] | 5.92 | (1.2x) | 6.00
3 | CCC1(O)CN(Cc2cc3c(c(C(F)(F)F)c2)CN(c2cccc(C4([C@@H](F)c5nncn5C)COC4)c2)C3=O)C1 [Compound 167, (R)-6-((3-ethyl-3-hydroxyazetidin-1-yl)methyl)-2-(3-(3-(fluoro(4-methyl-4H-1,2,4-triazol-3-yl)methyl)oxetan-3-yl)phenyl)-4-(trifluoromethyl)isoindolin-1-one] | 6.82 | 2.5x | 7.23
4 | Cn1cnnc1CC1(c2cc(NCCc3c[nH]c4ccccc34)nc(N3Cc4c(cc(CNC5(C)CCC5)cc4C(F)(F)F)C3=O)c2)CCC1 [Compound 316, 2-(6-((2-(1H-indol-3-yl)ethyl)amino)-4-(1-((4-methyl-4H-1,2,4-triazol-3-yl)methyl)cyclobutyl)pyridin-2-yl)-6-(((1-methylcyclobutyl)amino)methyl)-4-(trifluoromethyl)isoindolin-1-one] | 7.70 | (1.2x) | 7.80
5 | Cn1cnnc1[C@@H](F)C1(c2cccc(N3Cc4c(cc(CN5CC6(C5)CS(=O)(=O)C6)cc4C(F)(F)F)C3=O)c2)COC1 [Compound 182, (S)-6-((2,2-dioxido-2-thia-6-azaspiro[3.3]heptan-6-yl)methyl)-2-(3-(3-(fluoro(4-methyl-4H-1,2,4-triazol-3-yl)methyl)oxetan-3-yl)phenyl)-4-(trifluoromethyl)isoindolin-1-one] | 6.37 | 2.6x | 6.77
6 | C[C@H](c1cc2c(c(C(F)(F)F)c1)CN(c1cccc(C3([C@@H](F)c4nncn4C)COC3)c1)C2=O)N1CC(C)(F)C1 [Compound 109, 2-(3-(3((R)-fluoro(4-methyl-4H-1,2,4-triazol-3-yl)methyl)oxetan-3-yl)phenyl)-6-((R)-1-(3-fluoro-3-methylazetidin-1-yl)ethyl)-4-(trifluoromethyl)isoindolin-1-one] | 7.07 | 1.9x | 7.36
7 | Cn1cnnc1[C@H](F)C1(c2cccc(N3Cc4c(cc([C@@H](N)CC5CC5)cc4C(F)(F)F)C3=O)c2)COC1 [Compound 389, 6-((S)-1-amino-2-cyclopropylethyl)-2-(3-(3-((R)-fluoro(4-methyl-4H-1,2,4-triazol-3-yl)methyl)oxetan-3-yl)phenyl)-4-(trifluoromethyl)isoindolin-1-one] | 7.85 | (1.4x) | 8.02
8 | Cn1cnnc1CC1(c2cc(NC3CCC(F)(F)C3)nc(N3Cc4c(cccc4C(F)(F)F)C3=O)c2)COC1 (stereo not drawn) [Compound 483, 2-(6-((3,3-difluorocyclopentyl)amino)-4-(3-((4-methyl-4H-1,2,4-triazol-3-yl)methyl)oxetan-3-yl)pyridin-2-yl)-4-(trifluoromethyl)isoindolin-1-one] | 4.70 | (12x) | 5.74
9 | Cn1cnnc1[C@@H](F)C1(c2cccc(N3Cc4c(cc(CN5CC6(C5)CC6(F)F)cc4C(F)(F)F)C3=O)c2)COC1 [Compound 154, (S)-6-((1,1-difluoro-5-azaspiro[2.3]hexan-5-yl)methyl)-2-(3-(3-(fluoro(4-methyl-4H-1,2,4-triazol-3-yl)methyl)oxetan-3-yl)phenyl)-4-(trifluoromethyl)isoindolin-1-one] | 6.64 | 3.2x | 7.14
10 | Cn1cnnc1CC1(c2cccc(N3Cc4c(cc(CNC5(C)CCC5)cc4C(F)(F)F)C3=O)c2)CS(=O)(=O)C1 [Compound 242, 2-(3-(3-((4-methyl-4H-1,2,4-triazol-3-yl)methyl)-1,1-dioxido-thietan-3-yl)phenyl)-6-(((1-methylcyclobutyl)amino)methyl)-4-(trifluoromethyl)isoindolin-1-one] | 7.39 | (1.3x) | 7.51
11 | Cn1cnnc1[C@@H](F)C1(c2cccc(N3Cc4c(cc(CN5CCC(C)(O)CC5)cc4C(F)(F)F)C3=O)c2)COC1 [Compound 142, (S)-2-(3-(3-(fluoro(4-methyl-4H-1,2,4-triazol-3-yl)methyl)oxetan-3-yl)phenyl)-6-((4-hydroxy-4-methylpiperidin-1-yl)methyl)-4-(trifluoromethyl)isoindolin-1-one] | 6.37 | 1.9x | 6.64
12 | CO[C@H]1CCCN(Cc2cc3c(c(C(F)(F)F)c2)CN(c2cccc(C4(Cc5nncn5C)CC(F)(F)C4)c2)C3=O)C1 [Compound 443, (S)-2-(3-(3,3-difluoro-1-((4-methyl-4H-1,2,4-triazol-3-yl)methyl)cyclobutyl)phenyl)-6-((3-methoxypiperidin-1-yl)methyl)-4-(trifluoromethyl)isoindolin-1-one] | 6.74 | (2.8x) | 7.23
13 | Cn1cnnc1[C@H](F)C1(c2cccc(N3Cc4c(cc(CN)cc4C(F)(F)F)C3=O)c2)CCC1 [Compound 386, (R)-6-(aminomethyl)-2-(3-(1-(fluoro(4-methyl-4H-1,2,4-triazol-3-yl)methyl)cyclobutyl)phenyl)-4-(trifluoromethyl)isoindolin-1-one] | 7.51 | (0.98x) | 7.49

These reach a higher pIC50 (c-Cbl). Values come first.

Row | pIC50 (c-Cbl) | (fold-selectivity) (c-Cbl) | pIC50 (Cbl-b) | SMILES
14 | 8.01 | (0.76x) | 7.89 | CC(C)[C@H]1CN(C)CCN1Cc1cc2c(c(C(F)(F)F)c1)CN(c1cccc(C3(Cc4nncn4C(F)F)COC3)c1)C2=O [Compound 266, (S)-2-(3-(3-((4-(difluoromethyl)-4H-1,2,4-triazol-3-yl)methyl)-oxetan-3-yl)phenyl)-6-((2-isopropyl-4-methylpiperazin-1-yl)methyl)-4-(trifluoromethyl)-isoindolin-1-one]
15 | 7.96 | (0.96x) | 7.92 | CC(C)[C@H]1CN(C)CCN1Cc1cc2c(c(C(F)(F)F)c1)CN(c1cc(C3(Cc4nncn4C)CC(F)(F)C3)cc(N(C)C)n1)C2=O [Compound 280, (S)-2-(4-(3,3-difluoro-1-((4-methyl-4H-1,2,4-triazol-3-yl)methyl)cyclobutyl)-6-(dimethylamino)pyridin-2-yl)-6-((2-isopropyl-4-methylpiperazin-1-yl)methyl)-4-(trifluoromethyl)isoindolin-1-one]
16 | 7.89 | (0.83x) | 7.82 | Cc1cnn(CC2(c3cccc(N4Cc5c(cc(CN6CCN(C)C[C@@H]6C(C)C)cc5C(F)(F)F)C4=O)c3)COC2)n1 [Compound 256, (S)-6-((2-isopropyl-4-methylpiperazin-1-yl)methyl)-2-(3-(3-((4-methyl-2H-1,2,3-triazol-2-yl)methyl)oxetan-3-yl)phenyl)-4-(trifluoromethyl)isoindolin-1-one]
17 | 8.00 | (0.81x) | 7.92 | Cn1cnnc1CC1(c2cccc(N3Cc4c(cc(CNC56CC(C5)C6)cc4C(F)(F)F)C3=O)c2)CC(F)(F)C1 [Compound 356, 6-((bicyclo[1.1.1]pentan-1-ylamino)methyl)-2-(3-(3,3-difluoro-1-((4-methyl-4H-1,2,4-triazol-3-yl)methyl)cyclobutyl)phenyl)-4-(trifluoromethyl)isoindolin-1-one]
18 | 8.09 | (0.69x) | 7.92 | CCNc1cc(C2(Cc3nncn3C)COC2)cc(N2Cc3c(cc(CN4CCN(C)C[C@@H]4C(C)C)cc3C(F)(F)F)C2=O)n1 [Compound 291, (S)-2-(6-(ethylamino)-4-(3-((4-methyl-4H-1,2,4-triazol-3-yl)methyl)oxetan-3-yl)pyridin-2-yl)-6-((2-isopropyl-4-methylpiperazin-1-yl)methyl)-4-(trifluoromethyl)isoindolin-1-one]
19 | 8.46 | (0.55x) | 8.22 | CCNc1cc(N2Cc3c(cc(CNC4(C)CCC4)cc3C(F)(F)F)C2=O)cc(C2(Cc3nncn3C)CCC2)c1 [Compound 463, 2-(3-(ethylamino)-5-(1-((4-methyl-4H-1,2,4-triazol-3-yl)methyl)cyclobutyl)phenyl)-6-(((1-methylcyclobutyl)amino)methyl)-4-(trifluoromethyl)isoindolin-1-one]
20 | 8.27 | (0.50x) | 7.96 | CC(C)[C@H]1CN(C)CCN1Cc1cc2c(c(C(F)(F)F)c1)CN(c1cc(C3(Cc4nncn4C)CCC3)cc(C#N)n1)C2=O [Compound 299, (S)-6-(6-((2-isopropyl-4-methylpiperazin-1-yl)methyl)-1-oxo-4-(trifluoromethyl)isoindolin-2-yl)-4-(1-((4-methyl-4H-1,2,4-triazol-3-yl)methyl)cyclobutyl)picolinonitrile]
